The values below come from paper PMC9964390, “Design, Synthesis and Phenotypic Profiling of Simplified Gedatolisib Analogues” (Pharmaceuticals, 2023).

Values after ≈ are worked out from the molar mass of the structure shown. Like-named read-outs stand apart in the source and are kept apart here.

The nature of data set [1]: pH-dependent aqueous solubility (UV spectrophotometry). The class given is physicochemical. To be noted: aqueous buffer, thermodynamic from solid, 37 °C. How it is done:
A stock solution of the target compound was prepared by dissolving 1 mg in methanol, and the wavelength of greatest absorption of each compound was obtained by scanning between wavelengths from 200 nm to 500 nm. Six dilutions were prepared from the stock solution and the absorbance reading in the UV spectrophotometer (SpectraMax M5, Molecular Devices, USA). The calibration curve with linear regression was created with the values obtained, and the solubility test was measured by correlating the concentration with the absorbance obtained by ultraviolet. Each compound was added in excess at phosphate buffer solution pH 5.8 and 7.4 to obtain a supersaturated solution that was kept under stirring for 4 h at 37 °C and then was filtered through a 0.45 µm filter for reading at the corresponding wavelengths. The solubility was determined through the equation of the straight line obtained by the linear regression of the calibration curve of the compounds [24, 25].

Data set [2] deals with PC-3, MCF7, K562, CCRF-CEM and MOLT-4. The data set can be described thus: MTT single-concentration cytotoxicity screening. The format is cell-based, human. The settings on record: single concentration 30 μM; reduction in cell viability ≥ 50% selected for CC50. How it is done: In a first approach, the assay was validated with two standard drugs: gedatolisib and GSK-1059615.
After understanding the response profile of the selected cell lines to the treatment with gedatolisib and GSK-1059615, we investigated the cytotoxic activity of compounds 5a-f at a single concentration (30 μM). […] During the experiments, compounds 5a (LASSBio-2250), 5b (LASSBio-2251) and 9 (CAS-942789959) were insoluble and precipitated on the culture medium. Therefore, they were evaluated also at the screening concentration of 1 μM.
Cell viability was assessed by the MTT assay. The lines selected for this study were plated according to their respective densities, which ranged from 3 × 10^4 to 4 × 10^4 cells per well. Subsequently, they were treated with test compounds at different concentrations (0.00003 μM to 150 μM), gedatolisib and GSK-1059615.
After incubation, the plates are centrifuged at 440× g for 10 min. Then, 110 μL of the supernatant was withdrawn and each well received 10μL of the MTT solution. The plate was again incubated in an oven at 37 °C and 5% CO2 for 3 to 4 h. At the end of the incubation time, 100 μL of SDS-HCL detergent was added to solubilize the formazan crystals. The plate was shaken on an automatic overnight shaker and then read at a wavelength of 595 nm on the Molecular Devices Spectramax M5 plate reader.

Data set [3] has as its system PI3K activation and phosphorylation in MOLT-4 cell line. Briefly: Muse PI3K Activation Dual Detection Kit. The class given is cell-based, human. The settings on record: MOLT-4, concentration 10 times lower than its CC50. How it is done:
The methodology evaluates the activation and phosphorylation of PI3K and was performed from the labelling with the Guava Muse Luminex® PI3K Activation Dual Detection Kit (catalog n^o. MCH200103, Luminex) containing the anti-AKT/PKB-PECy5 antibody to measure total PI3K and the anti-phospho-AKT (Ser473)-Alexa Fluor® 555 antibody for measurement of activated PI3K.
Following 48 h of incubation in an incubator at 37 °C with 5% CO2, 1 mL of the cell solution was transferred to an Eppendorf tube, washed with PBS and centrifuged at 300× g for 5 min. The supernatant was discarded, and the pellet formed was resuspended in 500 µL of PBS. The samples were again centrifuged at 300× g for 5 min and the supernatant discarded.
Then the cell solutions were resuspended in 200 µL of assay buffer (Part no. CS202124), followed by the addition of 200 µL of fixation buffer (Part n^o. CS202122), ending up with a total volume of 400 µL per sample. The samples were incubated for 5 min on ice and centrifuged at 300× g for 5 min and the supernatant discarded.
Cells were permeabilized by adding 200 µL of ice-cold permeabilization buffer (Part n^o. CS202125) and then incubated on ice for 5 min and centrifuged at 300× g for 5 min, and the supernatant was discarded. The formed pellets were resuspended in 450 µL of assay buffer and vortexed at medium speed. In total, 90 µL of the solution from each sample was aliquoted into a new tube, and 10 µL of the cocktail solution containing Anti-phospho-Akt (Ser473), Alexa Fluor®555 and Anti-Akt/PKB, Pecy5 was added. The samples were homogenised and incubated for 30 min in the dark at room temperature.
After the incubation step, 100 µL of assay buffer was added per sample and centrifuged at 300× g for 5 min, and the supernatant was discarded. The formed pellets were resuspended in 200 µL of assay buffer and vortexed, and the samples were read in Guava Muse Luminex®. Data from three independent experiments performed in duplicate were analysed in the Prism6 program to determine the percentage of cells expressing activated and inactivated PI3K.

A short description of data set [4]: Microsomal metabolic stability. The class given is in vitro ADME. To be noted: for Metabolization Rates: 10 μM; for half-life at 10 μM / recovery at 10 µM: rat. The method, then:
To investigate the metabolic stability of LASSBio-2252 (5f), the compound was incubated with rat liver microsomes in the presence and in the absence of the NADPH-generating system. Metabolization rate, half-life (t1/2) and apparent intrinsic clearance (Clapp) were calculated.
The metabolic stability of compound 5f (LASSBio-2252) was studied as previously described, and 1 mg/mL of […] rat microsomes was incubated with compound […] (10 μM) in the presence and in the absence of the cofactor (i.e., NADPH generating system). After mixing and incubation at 37 °C in a shaking water bath for 1 h, 500 µL cold acetonitrile containing the internal standard was added to terminate the reaction at different time intervals (0, 15, 30, 45 and 60 min). After mixing and centrifugation at 10,500× g for 15 min at 4 °C, the supernatant was filtered and then was injected into the HPLC system using a mixture of methanol: water acidified (0.1% formic acid, pH 3.0) (50:50, v/v) as the mobile phase at a flow rate of 1.0 mL/min. After analysing the results, the pharmacokinetic parameters were calculated as microsomal half-life (t1/2) and apparent intrinsic clearance (Clapp).

Data set [5] concerns CCRF-CEM (human leukemia cell line). Set-up: method as in Gazi and coworkers [14]. To be noted: ref Gazi and coworkers [14]; cited from earlier work.
[6] abbreviates: rat liver microsomes, NADPH-generating system absent.
Where [7] appears, read: rat liver microsomes, NADPH-generating system present.

As for `c1ccc(N2CCN(c3nc(N4CCCNCC4)nc(N4CCOCC4)n3)CC2)cc1` [5f, 4-(4-(1,4-Diazepan-1-yl)-6-(4-phenylpiperazin-1-yl)-1,3,5-triazin-2-yl)morpholine], the solubility at 4 h came to 39.3 µM (≈ 16.7 µg/mL) in data set [1] (phosphate buffer pH 5.8 (duodenum), read-out: Solubility pH 5.8) and 42.4 µM (≈ 18 µg/mL) in data set [1] (phosphate buffer pH 7.4 (plasma), read-out: Solubility pH 7.4). Besides, the “cytotoxic effect on leukemia cell lines at single concentration” value in data set [2] was “cytotoxic effect”. In data set [3], the “reduction of PI3K-mediated phosphorylation” value was 79%. Further, the “Elimination Rate Constant (k)” value in data set [4] (setting [6]) stood at 0.0017; in data set [4] (setting [7]), 0.0015. Also, the “Metabolization Rates” value is listed as 9.09% in data set [4] (setting [6]) and 2.90% in data set [4] (setting [7]). Besides, the values for the half-life at 10 μM in data set [4] (liver microsomes), in data set [4] (setting [6]) and in data set [4] (setting [7]) were above 6 h, 6.79 h and 7.7 h, respectively. In addition, the recovery at 10 µM in data set [4] (liver microsomes, NADPH-generating system absent) came out at 100%; in data set [4] (liver microsomes, NADPH-generating system present) it was 101%.
As for `CN(C)C1CCN(C(=O)c2ccc(NC(=O)Nc3ccc(-c4nc(N5CCOCC5)nc(N5CCOCC5)n4)cc3)cc2)CC1` [Gedatolisib, gedatolisib], the CC50 in data set [5] is 23 nM.
